13 compounds from patent US12162878B2 (HINOVA PHARMACEUTICALS INC., priority 2018, dated 2024) can be followed below.

pIC50: −log10 of the molar value.

The assay relates to CWR22RV1 cells. As to the kind of experiment: Inhibition of proliferation of CWR22RV1 cells (CCK-8). Format: cell-based, human. The following applies: Homo sapiens, CWR22Rv1, 144 h, 6 days. The protocol: • CWR22RV1 cell line (Cell Bank of Chinese Academy of Sciences, TCHu100) • FBS (Gibco, Cat. No. 10099-141) • 0.01M PBS (Biosharp, Cat. No. 162262) • RIPM1640 (Hyclone, Cat. No. 308090.01) • Penicillin-Streptomycin (Hyclone, Cat. No. SV30010) • Cell counting kit-8 (Signalway Antibody, Cat. No. CP002) • DMSO (Sigma, Cat. No. D5879) • Centrifuge Tube, 15 ml (Excell Bio, Cat. No. CS015-0001) • Cell Culture Dish, (Excell Bio, Cat. No. CS016-0128) • 96-well cell culture cluster (Corning, Cat. No. 3599) • 2. Experimental method (1) Preparation of Buffer
1) CWR22RV1 cells were subcultured in cell culture medium, and the cells in good growth condition were seeded in a 96-well plate, 80 μL for each well, thus the number of cells per well was 1500, then the plate was cultured overnight in a 37° C., 5% CO2 cell incubator.
2) The drug was prepared with dimethyl sulfoxide (DMSO) as a 30 mM stock solution. Prior to use, the solution was diluted 3 times with DMSO, and then diluted with a 3-fold gradient to obtain 9 concentration gradients. Then, each concentration of the compound was further diluted 200 times with the culture solution (to ensure that DMSO concentration in the culture system was 0.1%), 2 repeat wells for each concentration. The diluted solution of each compound (20 μL) was added to the cell culture well (with a final concentration of 10 μM, 3.3 μM, 1.1 μM . . . ), and shaken gently for mixing. In addition, three negative control wells containing only cells and three blank control wells containing only culture medium (20 μL DMSO diluted 200 times with culture medium being added to six wells) were included.
(1) After culturing for 6 days, 10 μL CCK-8 was added to each well and cultured for additional 2.5 h in a 37° C., 5% CO2 cell incubator.
(2) The absorbance (OD value) at 450 nm was measured with a multifunctional microplate reader.
(3) The data was analyzed by the Dose-response-inhibition equation in the software GraphPad Prism6, and the IC50 value was obtained.
The pIC50 is the IC50 on a negative log10 scale, so that one unit is a factor of ten. A lower pIC50 goes with a large IC50. With `CCS(=O)(=O)Nc1ccc(N2CCC3(CC3)C2)c(-c2cn(C)c(=O)c3[nH]ccc23)c1` [Compound 7, N-(3-(6-methyl-7-oxo-6,7-dihydro-1H-pyrrolo[2,3-c]pyridin-4-yl)-4-(5-aza-spiro[2.4]heptan-5-yl)phenyl)ethylsulfonamide], the pIC50 is 7.74. Regarding `CCS(=O)(=O)Nc1ccc(N2CCC3(CC2)CC3)c(-c2cn(C)c(=O)c3[nH]ccc23)c1` [Compound 8], the pIC50 is 8.22. Next, `CCS(=O)(=O)Nc1ccc(N2CCCC3(CC3)C2)c(-c2cn(C)c(=O)c3[nH]ccc23)c1` [Compound 9, N-(3-(6-methyl-7-oxo-6,7-dihydro-1H-pyrrolo[2,3-c]pyridin-4-yl)-4-(5-aza-spiro[2.5]octan-5-yl)phenyl)ethylsulfonamide]: 7.52; `Cn1cc(-c2cc(NS(=O)(=O)C3CC3)ccc2N2CC3(CCC3)C2)c2cc[nH]c2c1=O` [Compound 10, N-(3-(6-methyl-7-oxo-6,7-dihydro-1H-pyrrolo[2,3-c]pyridin-4-yl)-4-(2-aza-spiro[3.3]heptan-2-yl)phenyl)cyclopropanesulfonamide]: 7.54.

Consider `Cn1cc(-c2cc(NS(C)(=O)=O)ccc2N2CC3(CCC3)C2)c2cc[nH]c2c1=O` [Compound 11, N-(3-(6-methyl-7-oxo-6,7-dihydro-1H-pyrrolo[2,3-c]pyridin-4-yl)-4-(2-aza-spiro[3.3]heptan-2-yl)phenyl)methanesulfonamide], for which the pIC50 is 7.52. Regarding `Cn1cc(-c2cc(NS(=O)(=O)C3COC3)ccc2N2CC3(CCC3)C2)c2cc[nH]c2c1=O` [Compound 12, N-(3-(6-methyl-7-oxo-6,7-dihydro-1H-pyrrolo[2,3-c]pyridin-4-yl)-4-(2-aza-spiro[3.3]heptan-2-yl)phenyl)oxetane-3-sulfonamide], the pIC50 is 7.05. As for `CCCCS(=O)(=O)Nc1ccc(N2CC3(CCC3)C2)c(-c2cn(C)c(=O)c3[nH]ccc23)c1` [Compound 13, N-(3-(6-methyl-7-oxo-6,7-dihydro-1H-pyrrolo[2,3-c]pyridin-4-yl)-4-(2-aza-spiro[3.3]heptan-2-yl)phenyl)butane-1-sulfonamide], the figure is 7.10. For the compound `CCS(=O)(=O)Nc1ccc(N2CC3(CCC3)C2)c(-c2cn(C)c(=O)c3[nH]ccc23)c1` [Compound 14, N-(3-(6-methyl-7-oxo-6,7-dihydro-1H-pyrrolo[2,3-c]pyridin-4-yl)-4-(2-aza-spiro[3.3]heptan-2-yl)phenyl)ethanesulfonamide], the pIC50 is 7.51. Next, `Cn1cc(-c2cc(NS(C)(=O)=O)ccc2N2CC3(COC3)C2)c2cc[nH]c2c1=O` [Compound 15, N-(3-(6-methyl-7-oxo-6,7-dihydro-1H-pyrrolo[2,3-c]pyridin-4-yl)-4-(2-oxa-6-aza-spiro[3.3]heptan-6-yl)phenyl)methanesulfonamide]: 6.19; `CCS(=O)(=O)Nc1ccc(N2CC3(COC3)C2)c(-c2cn(C)c(=O)c3[nH]ccc23)c1` [Compound 16, N-(3-(6-methyl-7-oxo-6,7-dihydro-1H-pyrrolo[2,3-c]pyridin-4-yl)-4-(2-oxa-6-aza-spiro[3.3]heptan-6-yl)phenyl)ethanesulfonamide]: 6.42. `CCCCS(=O)(=O)Nc1ccc(N2CC3(COC3)C2)c(-c2cn(C)c(=O)c3[nH]ccc23)c1` [Compound 17, N-(3-(6-methyl-7-oxo-6,7-dihydro-1H-pyrrolo[2,3-c]pyridin-4-yl)-4-(2-oxa-6-aza-spiro[3.3]heptan-6-yl)phenyl)butan-1-sulfonamide] had a pIC50 of 6.36. This pIC50 and that of the compound before are within 0.2 log units of each other. `Cn1cc(-c2cc(NS(=O)(=O)C3CC3)ccc2N2CC3(COC3)C2)c2cc[nH]c2c1=O` [Compound 18, N-(3-(6-methyl-7-oxo-6,7-dihydro-1H-pyrrolo[2,3-c]pyridin-4-yl)-4-(2-oxa-6-aza-spiro[3.3]heptan-6-yl)phenyl)cyclopropanesulfonamide]: the pIC50 is 6.28. `CCOC(=O)C1CC12CCN(c1ccc(NS(=O)(=O)CC)cc1-c1cn(C)c(=O)c3[nH]ccc13)CC2` (stereo not shown) [Compound 19] showed a pIC50 of 6.39.
